# Source: PubChem BioAssay (NCI)
#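 These data come from cells grown in 96-well plates and exposed to compound for 48 hours at five concentrations. TGI denotes the concentration required for complete inhibition of growth.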
# Experiments:
# Assay in all cases: inhibition of tumour cell growth, NCI panel, 48 h
# [1] = test system: 786-0 renal
# [2] = test system: A498 renal
# [3] = test system: A549 NSCLC
# [4] = test system: ACHN renal
# [5] = test system: CCRF-CEM leukemia
# [6] = test system: COLO 205 colon
# [7] = test system: DLD-1 colon
# [8] = test system: DMS 114 small cell lung
# [9] = test system: EKVX NSCLC
# [10] = test system: HCC-2998 colon
# [11] = test system: HCT-116 colon
# [12] = test system: HCT-15 colon
# [13] = test system: HL-60(TB) leukemia
# [14] = test system: HOP-18 NSCLC
# [15] = test system: HOP-92 NSCLC
# [16] = test system: HT29 colon
# [17] = test system: IGROV1 ovarian
# [18] = test system: K-562 leukemia
# [19] = test system: KM12 colon
# [20] = test system: KM20L2 colon
# [21] = test system: LXFL 529 NSCLC
# [22] = test system: M14 melanoma
# [23] = test system: M19-MEL melanoma
# [24] = test system: MALME-3M melanoma
# [25] = test system: MOLT-4 leukemia
# [26] = test system: NCI-H23 lung
# [27] = test system: NCI-H460 lung
# [28] = test system: NCI-H522 lung
# [29] = test system: OVCAR-3 ovarian
# [30] = test system: OVCAR-4 ovarian
# [31] = test system: OVCAR-5 ovarian
# [32] = test system: OVCAR-8 ovarian
# [33] = test system: RXF 393 renal
# [34] = test system: RXF-631 renal
# [35] = test system: SF-268 CNS
# [36] = test system: SF-295 CNS
# [37] = test system: SF-539 CNS
# [38] = test system: SK-MEL-2 melanoma
# [39] = test system: SK-MEL-28 melanoma
# [40] = test system: SK-MEL-5 melanoma
# [41] = test system: SN12C renal
# [42] = test system: SNB-19 CNS
# [43] = test system: SNB-75 CNS
# [44] = test system: SR leukemia
# [45] = test system: SW-620 colon
# [46] = test system: TK-10 renal
# [47] = test system: U251 CNS
# [48] = test system: UACC-257 melanoma
# [49] = test system: UACC-62 melanoma
# [50] = test system: UO-31 renal
# [51] = test system: DMS 273 small cell lung
# [52] = test system: HOP-62 NSCLC
# [53] = test system: LOX IMVI melanoma
# [54] = test system: RPMI-8226 leukemia
# [55] = test system: SK-OV-3 ovarian
# [56] = test system: SNB-78 CNS
smiles,measurement,setting,value
CC(C)=C1CCC(CN(C)C)C1=O (centres undefined),TGI,[1],25.9 µM
same,TGI,[2],36.9 µM
same,TGI,[3],> 100 µM
same,TGI,[4],31.5 µM
same,TGI,[5],27.7 µM
same,TGI,[6],63.4 µM
same,TGI,[7],36.8 µM
same,TGI,[8],38.4 µM
same,TGI,[9],31.9 µM
same,TGI,[10],33.2 µM
same,TGI,[11],30.3 µM
same,TGI,[12],30.8 µM
same,TGI,[13],15.6 µM
same,TGI,[14],36.6 µM
same,TGI,[15],40.6 µM
same,TGI,[16],41.1 µM
same,TGI,[17],> 100 µM
same,TGI,[18],31 µM
same,TGI,[19],> 100 µM
same,TGI,[20],27.7 µM
same,TGI,[21],25.4 µM
same,TGI,[22],28.4 µM
same,TGI,[23],> 100 µM
same,TGI,[24],30.2 µM
same,TGI,[25],32.9 µM
same,TGI,[26],> 100 µM
same,TGI,[27],> 100 µM
same,TGI,[28],0.4 µM
same,TGI,[29],31.7 µM
same,TGI,[30],28.4 µM
same,TGI,[31],> 100 µM
same,TGI,[32],49.4 µM
same,TGI,[33],33.5 µM
same,TGI,[34],> 100 µM
same,TGI,[35],97.3 µM
same,TGI,[36],> 100 µM
same,TGI,[37],> 100 µM
same,TGI,[38],78.4 µM
same,TGI,[39],34 µM
same,TGI,[40],32.9 µM
same,TGI,[41],33.6 µM
same,TGI,[42],> 100 µM
same,TGI,[43],24.2 µM
same,TGI,[44],36.5 µM
same,TGI,[45],20.2 µM
same,TGI,[46],31 µM
same,TGI,[47],> 100 µM
same,TGI,[48],31.6 µM
same,TGI,[49],35.1 µM
same,TGI,[50],> 100 µM
Cc1cc2c(c(C(N)=O)c1C)-c1ccccc1C2=O,TGI,[1],> 100 µM
same,TGI,[2],> 100 µM
same,TGI,[3],> 100 µM
same,TGI,[4],> 100 µM
same,TGI,[5],> 100 µM
same,TGI,[6],> 100 µM
same,TGI,[7],> 100 µM
same,TGI,[8],> 100 µM
same,TGI,[51],> 100 µM
same,TGI,[9],> 100 µM
same,TGI,[10],> 100 µM
same,TGI,[11],> 100 µM
same,TGI,[12],> 100 µM
same,TGI,[13],> 100 µM
same,TGI,[14],> 100 µM
same,TGI,[52],> 100 µM
same,TGI,[15],> 100 µM
same,TGI,[16],> 100 µM
same,TGI,[17],> 100 µM
same,TGI,[18],> 100 µM
same,TGI,[19],> 100 µM
same,TGI,[20],> 100 µM
same,TGI,[53],> 100 µM
same,TGI,[21],> 100 µM
same,TGI,[22],> 100 µM
same,TGI,[23],> 100 µM
same,TGI,[24],> 100 µM
same,TGI,[25],> 100 µM
same,TGI,[26],> 100 µM
same,TGI,[27],> 100 µM
same,TGI,[28],> 100 µM
same,TGI,[29],> 100 µM
same,TGI,[30],> 100 µM
same,TGI,[31],> 100 µM
same,TGI,[32],> 100 µM
same,TGI,[54],> 100 µM
same,TGI,[33],> 100 µM
same,TGI,[34],> 100 µM
same,TGI,[35],> 100 µM
same,TGI,[36],> 100 µM
same,TGI,[37],> 100 µM
same,TGI,[38],> 100 µM
same,TGI,[39],> 100 µM
same,TGI,[55],> 100 µM
same,TGI,[41],> 100 µM
same,TGI,[42],> 100 µM
same,TGI,[43],> 100 µM
same,TGI,[56],> 100 µM
same,TGI,[45],> 100 µM
same,TGI,[46],> 100 µM
same,TGI,[47],> 100 µM
same,TGI,[48],> 100 µM
same,TGI,[49],> 100 µM
same,TGI,[50],> 100 µM
